Patent publication US12447170B2, “Use of maribavir in treatment regimens” (priority 2021, dated 2025)

How the values were obtained:
[1] = clinical; settings: human, in vivo; for AUC(0-t): AUC(0-12 h)
Experimental: A combination of in vitro data and clinical pharmacokinetic data obtained following a single dose of 400 mg maribavir were used to develop the PBPK model. […] The Cmax was marginally under predicted, which could be expected because the PBPK model was optimized for better prediction of C12h.
A comparison of observed and predicted plasma concentrations of maribavir following single oral doses of 800 mg and 1600 mg to healthy patients […]. […] The simulated and observed maribavir concentrations were in reasonable agreement.
A comparison of observed and predicted plasma concentrations of maribavir following multiple oral 400 mg BID doses of maribavir was performed. […] The simulated and observed maribavir concentrations were in reasonable agreement.

[2] = tested on: CYP1A2 mRNA; assay type: in vitro ADME; settings: human, hepatocytes, 72 h
Experimental: (§1) Fresh human hepatocytes were treated with culture medium with maribavir concentrations of 36 μM, 144 μM, and 480 μM. […] Incubation was conducted at 37° C. for 72 hours, with daily replacement of medium with compound. […] Analysis of CYP expression was performed using qPCR with CYP-specific probes.

[3] = tested on: CYP2B6 mRNA; assay type: in vitro ADME; settings: human, hepatocytes, 72 h
Experimental: as §1

[4] = 400 mg, observed Geometric mean

Q: Which “AUC(0-∞), observed Mean” value ([1]; 400 mg) does the source give for CC(C)Nc1nc2cc(Cl)c(Cl)cc2n1[C@H]1O[C@@H](CO)[C@H](O)[C@@H]1O [maribavir, (2S,3S,4R,5S)-2-(5,6-dichloro-2-(isopropylamino)-1H-benzo[d]imidazol-1-yl)-5-(hydroxymethyl)tetrahydrofuran-3,4-diol] here?
A: Its value is 126000 ng·h/mL.

Q: And the AUC(0-t) ([1]; 400 mg, observed)?
A: Its AUC(0-t) is 86600 ng·h/mL.

Q: And the AUC(0-t) ([1]; 400 mg, observed Mean)?
A: Its AUC(0-t) is 89900 ng·h/mL.

Q: And the AUC(0-inf) [1, 4]?
A: The AUC(0-inf) was 119000 ng·h/mL.

Q: What about the AUC(0-inf) ([1]; 400 mg, observed Mean) of the same compound?
A: The AUC(0-inf) was 89900 ng·h/mL.

Q: And the Cmax [1, 4]?
A: Its Cmax is 19400 ng/mL.

Q: What about the Cmax ([1]; 400 mg, observed Mean) of the same compound?
A: The Cmax was 16900 ng/mL.

Q: What about the Cmax ([1]; 400 mg, observed, row headed % CV) of the same compound?
A: Its Cmax is 16200 ng/mL.

Q: And the AUC(0-inf) ([1]; po, 400 mg, observed Mean)?
A: The AUC(0-inf) was 97800 ng·h/mL.

Q: What about the Cmax ([1]; po, 400 mg, observed Mean) of the same compound?
A: Its Cmax is 16700 ng/mL.

Q: And the AUC(0-inf) ([1]; po, 800 mg, observed Mean)?
A: The AUC(0-inf) was 183000 ng·h/mL.

Q: What about the Cmax ([1]; po, 800 mg, observed Mean) of the same compound?
A: The Cmax was 26400 ng/mL.

Q: What about the AUC(0-inf) ([1]; po, 1600 mg, observed Mean) of the same compound?
A: The AUC(0-inf) was 437000 ng·h/mL.

Q: What about the Cmax ([1]; po, 1600 mg, observed Mean) of the same compound?
A: Its Cmax is 48800 ng/mL.

Q: And the “CYP1A2 mRNA induction, % of the levels of positive controls” value [2]?
A: Its value is no more than 11%.

Q: And the “CYP2B6 mRNA induction, % of the levels of positive controls” value [3]?
A: The value was no more than 11%.
